Measurements taken from publication PMC9090415, “Discovery of small molecule inhibitors of Plasmodium falciparum apicoplast DNA polymerase” (Journal of Enzyme Inhibition and Medicinal Chemistry, 2022).

Target: P. falciparum apicoplast DNA polymerase (Pf-apPOL) (Plasmodium falciparum, UniProt Q8ILY1)
Assay: Fluorescence-based high-throughput DNA polymerase assay (molecular beacon), primary screen and dose-response
Type: biochemical
Settings: for DNA Pol: unit not given, 90 min, 10 µM; for % inhibition apPOL 180' 2.5 / % inhibition apPOL 180' 5 / % inhibition apPOL 180' 10 / % inhibition apPOL 180' 20 / % inhibition apPOL 180' 40 / % inhibition apPOL 180' 80: read at 180'
Method in brief: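 Single-point screening used 10 µM compound with 20 nM polymerase, 20 nM hairpin substrate and 6 µM dNTPs for 90 min at 25 °C. Confirmatory titrations (2.5–80 µM) followed fluorescence at three times, and IC50 was derived from a fit including a cooperativity term n.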

P. falciparum apicoplast DNA polymerase (Pf-apPOL), sequence (Q8ILY1 entry or part of it): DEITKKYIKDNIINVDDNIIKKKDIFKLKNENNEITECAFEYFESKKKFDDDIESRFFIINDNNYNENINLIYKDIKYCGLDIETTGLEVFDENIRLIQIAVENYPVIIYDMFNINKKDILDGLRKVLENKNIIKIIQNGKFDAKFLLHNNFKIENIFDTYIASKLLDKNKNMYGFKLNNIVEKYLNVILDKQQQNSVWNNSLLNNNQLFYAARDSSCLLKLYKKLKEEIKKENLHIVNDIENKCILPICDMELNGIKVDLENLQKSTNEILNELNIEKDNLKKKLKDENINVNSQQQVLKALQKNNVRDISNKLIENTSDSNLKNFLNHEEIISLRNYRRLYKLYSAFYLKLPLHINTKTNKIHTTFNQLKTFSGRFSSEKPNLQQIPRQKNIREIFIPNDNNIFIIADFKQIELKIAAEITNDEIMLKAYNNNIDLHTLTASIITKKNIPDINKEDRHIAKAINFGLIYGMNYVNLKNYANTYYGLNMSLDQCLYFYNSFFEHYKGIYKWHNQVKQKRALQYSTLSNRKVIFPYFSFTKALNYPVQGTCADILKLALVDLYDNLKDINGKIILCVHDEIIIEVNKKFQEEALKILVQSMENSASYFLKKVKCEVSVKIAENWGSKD

SMILES: Cc1ccsc1Cn1c(C)ccc1C [Molecule 70, Cc1ccsc1Cn1c(C)ccc1C]
- DNA Pol (186 hits, DNA Pol (screen value)): 77
- DNA Pol ('DNA Pol' (screen value)): 77
- % inhibition Apo pol 10' 2.5 (DRC-1, read at 10', concentration 2.5): 0.1737%
- % inhibition Apo pol 10' 5 (DRC-1, read at 10', concentration 5): 5.431%
- % inhibition Apo pol 10' 10 (DRC-1, read at 10', concentration 10): 19.8551%
- % inhibition Apo pol 10' 20 (DRC-1, read at 10', concentration 20): 37.488%
- % inhibition Apo pol 10' 40 (DRC-1, read at 10', concentration 40): 56.0716%
- % inhibition Apo pol 10' 80 (DRC-1, read at 10', concentration 80): 76.6416%
- % inhibition Apol 90' 2.5 (DRC-1, read at 90', concentration 2.5): -5.458%
- % inhibition Apol 90' 5 (DRC-1, read at 90', concentration 5): -2.713%
- % inhibition Apol 90' 10 (DRC-1, read at 90', concentration 10): 8.027%
- % inhibition Apol 90' 20 (DRC-1, read at 90', concentration 20): 21.1278%
- % inhibition Apol 90' 40 (DRC-1, read at 90', concentration 40): 39.127%
- % inhibition Apol 90' 80 (DRC-1, read at 90', concentration 80): 69.1434%
- % inhibition apPOL 180' 2.5 (DRC-1, concentration 2.5): -10.1468%
- % inhibition apPOL 180' 5 (DRC-1, concentration 5): -7.921%
- % inhibition apPOL 180' 10 (DRC-1, concentration 10): -1.934%
- % inhibition apPOL 180' 20 (DRC-1, concentration 20): 6.387%
- % inhibition apPOL 180' 40 (DRC-1, concentration 40): 21.8537%
- % inhibition apPOL 180' 80 (DRC-1, concentration 80): 54.6421%
- % inhibition Apol 40' (DRC-2, 40', concentration 80): 62%
- % inhibition apPOL 180' (DRC-2, concentration 2.5): -6%
- % inhibition apPOL 180' (DRC-2, concentration 5): -6%
- % inhibition apPOL 180' (DRC-2, concentration 80): 62%
- % inhibition Apo pol 5' 2.5 (DRC-2, read at 5', concentration 2.5): -3.3%
- % inhibition Apo pol 5' 5 (DRC-2, read at 5', concentration 5): 5.66%
- % inhibition Apo pol 5' 10 (DRC-2, read at 5', concentration 10): 20%
- % inhibition Apo pol 5' 20 (DRC-2, read at 5', concentration 20): 32%
- % inhibition Apo pol 5' 40 (DRC-2, read at 5', concentration 40): 48%
- % inhibition Apo pol 5' 80 (DRC-2, read at 5', concentration 80): 47%
- % inhibition Apol 40' 2.5 (DRC-2, read at 40', concentration 2.5): -1.81%
- % inhibition Apol 40' 5 (DRC-2, read at 40', concentration 5): 4%
- % inhibition Apol 40' 10 (DRC-2, read at 40', concentration 10): 18%
- % inhibition Apol 40' 20 (DRC-2, read at 40', concentration 20): 33%
- % inhibition Apol 40' 40 (DRC-2, read at 40', concentration 40): 56%
- % inhibition Apol 40' 80 (DRC-2, read at 40', concentration 80): 62%
- % inhibition ApPOL 90' 2.5 (DRC-2, read at 90', concentration 2.5): -3%
- % inhibition ApPOL 90' 5 (DRC-2, read at 90', concentration 5): -0.174%
- % inhibition ApPOL 90' 10 (DRC-2, read at 90', concentration 10): 14%
- % inhibition ApPOL 90' 20 (DRC-2, read at 90', concentration 20): 28%
- % inhibition ApPOL 90' 40 (DRC-2, read at 90', concentration 40): 54%
- % inhibition ApPOL 90' 80 (DRC-2, read at 90', concentration 80): 64%
- % inhibition apPOL 180' 2.5 (DRC-2, concentration 2.5): -6%
- % inhibition apPOL 180' 5 (DRC-2, concentration 5): -6%
- % inhibition apPOL 180' 10 (DRC-2, concentration 10): 5.64%
- % inhibition apPOL 180' 20 (DRC-2, concentration 20): 16%
- % inhibition apPOL 180' 40 (DRC-2, concentration 40): 45%
- % inhibition apPOL 180' 80 (DRC-2, concentration 80): 62%
